Reference: ChEMBL document CHEMBL1201862, “PubChem BioAssay data set” (2004)
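Test compounds were applied to cells in 96-well plates for 48 hours at 5 doses. At the GI50, growth is halved.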 Calls of active or inactive are those of the source. No stated cut-off is given here; in the data, active = GI50 up to about 1.1 µM and inactive = higher.

Key:
Experiment in all cases: DTP human tumour cell line panel, 48 h
SR = test system: SR
SW-620 = test system: SW-620
NCI/ADR-RES = test system: NCI/ADR-RES
U-251 = test system: U-251
SF-539 = test system: SF-539
SNB-19 = test system: SNB-19
SK-MEL-28 = test system: SK-MEL-28
HL-60 = test system: HL-60
UO-31 = test system: UO-31
SF-295 = test system: SF-295
HOP-62 = test system: HOP-62
MCF7 = test system: MCF7
SNB-75 = test system: SNB-75
SK-OV-3 = test system: SK-OV-3
LOX IMVI = test system: LOX IMVI
NCI-H460 = test system: NCI-H460
OVCAR-3 = test system: OVCAR-3
EKVX = test system: EKVX
UACC-62 = test system: UACC-62
HOP-92 = test system: HOP-92

Row | Compound | GI50 (SR) | GI50 (SW-620) | GI50 (NCI/ADR-RES) | GI50 (U-251) | GI50 (SF-539) | GI50 (SNB-19) | GI50 (SK-MEL-28) | GI50 (HL-60) | GI50 (UO-31) | GI50 (SF-295) | GI50 (HOP-62) | GI50 (MCF7) | GI50 (SNB-75) | GI50 (SK-OV-3) | GI50 (LOX IMVI) | GI50 (NCI-H460) | GI50 (OVCAR-3) | GI50 (EKVX) | GI50 (UACC-62) | GI50 (HOP-92)
1 | N#CCCN(CCC#N)c1ccc(/C=C2\SC(=S)NC2=O)cc1 | > 100 µM (inactive) | > 100 µM (inactive) | > 100 µM (inactive) | 20.3 µM (inactive) | > 100 µM (inactive) | 33.9 µM (inactive) | > 100 µM (inactive) | > 100 µM (inactive) | > 100 µM (inactive) | 39.4 µM (inactive) | 35.2 µM (inactive) | > 100 µM (inactive) | 50.2 µM (inactive) | > 100 µM (inactive) | 34.6 µM (inactive) | > 100 µM (inactive) | > 100 µM (inactive) | > 100 µM (inactive) | > 100 µM (inactive) | 75.9 µM (inactive)
2 | C/C(=N\Nc1nc2ccccc2n1C)c1cc2ccccc2cn1 | < 0.0169 µM (active) | < 0.0118 µM (active) | < 0.0182 µM (active) | < 0.0275 µM (active) | 0.441 µM (active) | 0.352 µM (active) | 0.213 µM (active) | 0.0103 µM (active) | < 0.01 µM (active) | 0.144 µM (active) | 0.153 µM (active) | < 0.01 µM (active) | 1.14 µM (inactive) | 0.0339 µM (active) | 0.0305 µM (active) | 0.0653 µM (active) |  | < 0.0111 µM (active) | 0.0403 µM (active) | 0.321 µM (active)
3 | CC(=O)O[C@H]1/C(=C/c2ccc(N(C)C)cc2)C[C@H]2[C@@H]3CC=C4C[C@@H](N5CCCC5)CC[C@]4(C)[C@H]3CC[C@]12C | 40 µM (inactive) | > 100 µM (inactive) | > 100 µM (inactive) | > 100 µM (inactive) | > 100 µM (inactive) | > 100 µM (inactive) | > 100 µM (inactive) | > 100 µM (inactive) | > 100 µM (inactive) | > 100 µM (inactive) | > 100 µM (inactive) | > 100 µM (inactive) | > 100 µM (inactive) | > 100 µM (inactive) | 35.6 µM (inactive) | 61.9 µM (inactive) | > 100 µM (inactive) | > 100 µM (inactive) | > 100 µM (inactive) | > 100 µM (inactive)
4 | Cc1ccc(CC(Cc2ccccc2C)C(=O)O)c(C(=O)O)c1 (stereo unspecified) | > 100 µM (inactive) | > 100 µM (inactive) | > 100 µM (inactive) | > 100 µM (inactive) | > 100 µM (inactive) | > 100 µM (inactive) | > 100 µM (inactive) | > 100 µM (inactive) | > 100 µM (inactive) | > 100 µM (inactive) | > 100 µM (inactive) | > 100 µM (inactive) | > 100 µM (inactive) |  | > 100 µM (inactive) | > 100 µM (inactive) | > 100 µM (inactive) | > 100 µM (inactive) |  | > 100 µM (inactive)
5 | CC(C)c1ccc2c(c1)[C@@]1(C)CC[C@H](C)C(C)(C)C1CC2 (stereo partly specified) | 27.5 µM (inactive) | 47.8 µM (inactive) | 18.2 µM (inactive) |  | 23.4 µM (inactive) | 19.7 µM (inactive) | 17 µM (inactive) | 34.4 µM (inactive) | 37.9 µM (inactive) | 20.6 µM (inactive) | 18.8 µM (inactive) | 17.2 µM (inactive) | 17.2 µM (inactive) | 18.5 µM (inactive) | 17.6 µM (inactive) | 18.6 µM (inactive) | 25.4 µM (inactive) | 18.9 µM (inactive) | 16.2 µM (inactive) | 16.9 µM (inactive)
6 | O=[N+]([O-])c1c(O)c2nonc2c2nn(-c3ccccc3)nc12 | > 100 µM (inactive) | > 100 µM (inactive) | > 100 µM (inactive) | > 100 µM (inactive) | > 100 µM (inactive) | > 100 µM (inactive) | > 100 µM (inactive) | > 100 µM (inactive) | 43.2 µM (inactive) | > 100 µM (inactive) | > 100 µM (inactive) | 20.5 µM (inactive) | > 100 µM (inactive) | > 100 µM (inactive) | > 100 µM (inactive) | > 100 µM (inactive) | > 100 µM (inactive) | > 100 µM (inactive) | > 100 µM (inactive) | > 100 µM (inactive)
7 | O=C(O)C(/C=C/c1ccccc1)c1ccccc1 (stereo unspecified) | 5.11 µM (inactive) | > 100 µM (inactive) | > 100 µM (inactive) | > 100 µM (inactive) | > 100 µM (inactive) | > 100 µM (inactive) | > 100 µM (inactive) | 9.25 µM (inactive) | > 100 µM (inactive) | > 100 µM (inactive) | > 100 µM (inactive) | > 100 µM (inactive) | > 100 µM (inactive) | > 100 µM (inactive) | > 100 µM (inactive) | > 100 µM (inactive) | > 100 µM (inactive) | > 100 µM (inactive) | > 100 µM (inactive) | > 100 µM (inactive)
